Experimental data published in ChEMBL document CHEMBL1201862, “PubChem BioAssay data set” (2004).
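Method: 48-hour compound exposure of cells in 96-well plates, five concentrations, linear interpolation of endpoints. GI50 is the concentration that inhibits growth by half.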 The source made the active and inactive calls. No stated cut-off is given here; in the data, active = GI50 up to about 1.1 µM and inactive = higher.

Assays:
Assay in all cases: NCI-60 cell line screen, 48 h
NCI-H460 = system: NCI-H460
NCI/ADR-RES = system: NCI/ADR-RES
SNB-19 = system: SNB-19
SF-539 = system: SF-539
HL-60 = system: HL-60
HCC 2998 = system: HCC 2998
HOP-92 = system: HOP-92
SF-268 = system: SF-268
SK-MEL-28 = system: SK-MEL-28
U-251 = system: U-251
CCRF-CEM = system: CCRF-CEM
HCT-15 = system: HCT-15
COLO 205 = system: COLO 205
MCF7 = system: MCF7
SF-295 = system: SF-295
Hs-578T = system: Hs-578T
MDA-MB-231 = system: MDA-MB-231
NCI-H522 = system: NCI-H522
PC-3 = system: PC-3
RXF 393 = system: RXF 393

Structure (SMILES)	GI50 (NCI-H460)	GI50 (NCI/ADR-RES)	GI50 (SNB-19)	GI50 (SF-539)	GI50 (HL-60)	GI50 (HCC 2998)	GI50 (HOP-92)	GI50 (SF-268)	GI50 (SK-MEL-28)	GI50 (U-251)	GI50 (CCRF-CEM)	GI50 (HCT-15)	GI50 (COLO 205)	GI50 (MCF7)	GI50 (SF-295)	GI50 (Hs-578T)	GI50 (MDA-MB-231)	GI50 (NCI-H522)	GI50 (PC-3)	GI50 (RXF 393)
CCCCc1ccc(Nc2nc(S)c3[nH]cnc3n2)cc1	33.3 µM (inactive)	13.4 µM (inactive)	22.8 µM (inactive)	20.3 µM (inactive)	27.9 µM (inactive)	25.5 µM (inactive)	32.4 µM (inactive)	50.7 µM (inactive)	22.9 µM (inactive)	24.7 µM (inactive)	21.1 µM (inactive)	37.5 µM	16.6 µM (inactive)	> 10 µM (inactive)	25.1 µM (inactive)	21.5 µM (inactive)	28.9 µM (inactive)	10.9 µM (inactive)	29.7 µM (inactive)	–
S=c1sc2c(s1)SCc1cccc(n1)CSc1sc(=S)sc1SCc1cccc(n1)CS2	> 100 µM (inactive)	> 100 µM (inactive)	> 100 µM (inactive)	> 100 µM (inactive)	> 100 µM (inactive)	> 100 µM (inactive)	–	> 100 µM (inactive)	> 100 µM (inactive)	> 100 µM (inactive)	> 100 µM (inactive)	> 100 µM	> 100 µM (inactive)	> 10 µM (inactive)	> 100 µM (inactive)	> 100 µM (inactive)	> 100 µM (inactive)	> 100 µM (inactive)	> 100 µM (inactive)	–
C=C/C(C)=C\CC1[C@](C)(O)CC[C@H]2C(C)(C)C(O)CC[C@]12C (some centres undefined)	78.2 µM (inactive)	> 100 µM (inactive)	> 100 µM (inactive)	> 100 µM (inactive)	17.7 µM (inactive)	–	> 100 µM (inactive)	> 100 µM (inactive)	> 100 µM (inactive)	> 100 µM (inactive)	27.5 µM (inactive)	> 100 µM	> 100 µM (inactive)	70.1 µM (inactive)	> 100 µM (inactive)	> 100 µM (inactive)	> 100 µM (inactive)	91.4 µM (inactive)	70 µM (inactive)	95.1 µM (inactive)
COc1ccc(CN(Cc2ccc(OC)cc2)C(=O)CC2(O)C=CCC2)cc1 (centres undefined)	67.5 µM (inactive)	43.1 µM (inactive)	71.9 µM (inactive)	> 100 µM (inactive)	34.8 µM (inactive)	69.2 µM (inactive)	> 100 µM (inactive)	–	> 100 µM (inactive)	90.8 µM (inactive)	47.6 µM (inactive)	78.7 µM	40 µM (inactive)	43.9 µM (inactive)	56.9 µM (inactive)	48.4 µM (inactive)	> 100 µM (inactive)	32.7 µM (inactive)	28 µM (inactive)	–
COc1cc(/C=C2\N=C(c3ccccc3)N(c3ccc4c(c3)Sc3cc(N5C(=O)/C(=C/c6cc(OC)c(OC)c(OC)c6)N=C5c5ccccc5)ccc3N4)C2=O)cc(OC)c1OC	31.3 µM (inactive)	31 µM (inactive)	21.2 µM (inactive)	–	26.9 µM (inactive)	21.2 µM (inactive)	18.8 µM (inactive)	18.4 µM (inactive)	40.6 µM (inactive)	21 µM (inactive)	22 µM (inactive)	> 100 µM	20.9 µM (inactive)	21 µM (inactive)	22.9 µM (inactive)	21.8 µM (inactive)	25.7 µM (inactive)	17.1 µM (inactive)	19.6 µM (inactive)	20.7 µM (inactive)
Cc1csc(CP(=O)(OC(C)C)OC(C)C)n1	> 100 µM (inactive)	> 100 µM (inactive)	> 100 µM (inactive)	> 100 µM (inactive)	> 100 µM (inactive)	> 100 µM (inactive)	> 100 µM (inactive)	> 100 µM (inactive)	> 100 µM (inactive)	> 100 µM (inactive)	–	> 100 µM	> 100 µM (inactive)	> 100 µM (inactive)	> 100 µM (inactive)	> 100 µM (inactive)	> 100 µM (inactive)	> 100 µM (inactive)	> 100 µM (inactive)	> 100 µM (inactive)
Cc1ccc(C2=CC(=O)OC(C[P+](c3ccccc3)(c3ccccc3)c3ccccc3)(c3ccccc3)O2)cc1 (centres undefined)	17.8 µM (inactive)	19 µM (inactive)	17 µM (inactive)	18.1 µM (inactive)	20.1 µM (inactive)	22.4 µM (inactive)	–	18.5 µM (inactive)	19 µM (inactive)	17.9 µM (inactive)	16.8 µM (inactive)	20 µM	14.3 µM (inactive)	21.1 µM (inactive)	26.9 µM (inactive)	18.2 µM (inactive)	28.5 µM (inactive)	12 µM (inactive)	23.1 µM (inactive)	16.7 µM (inactive)
CCOC(=O)c1cc(C2(OC)CCN(Cc3ccccc3)C2=O)c(-c2cc(C)no2)[nH]1 (centres undefined)	82.4 µM (inactive)	> 100 µM (inactive)	> 100 µM (inactive)	–	–	> 100 µM (inactive)	90.6 µM (inactive)	> 100 µM (inactive)	> 100 µM (inactive)	> 100 µM (inactive)	–	> 100 µM	> 100 µM (inactive)	94.6 µM (inactive)	> 100 µM (inactive)	> 100 µM (inactive)	> 100 µM (inactive)	> 100 µM (inactive)	> 100 µM (inactive)	99.5 µM (inactive)
CC(=O)[C@@H](C)C(=O)N1C(=O)OC[C@@]12[C@@H]1CC[C@@H](C1)C2(C)C	> 100 µM (inactive)	> 100 µM (inactive)	> 100 µM (inactive)	> 100 µM (inactive)	> 100 µM (inactive)	> 100 µM (inactive)	> 100 µM (inactive)	–	> 100 µM (inactive)	> 100 µM (inactive)	> 100 µM (inactive)	> 100 µM	> 100 µM (inactive)	> 100 µM (inactive)	> 100 µM (inactive)	> 100 µM (inactive)	> 100 µM (inactive)	> 100 µM (inactive)	> 100 µM (inactive)	> 100 µM (inactive)
Oc1ccc[nH]c1=[Se]	41.8 µM (inactive)	55.1 µM (inactive)	85.9 µM (inactive)	54.6 µM (inactive)	> 100 µM (inactive)	–	> 100 µM (inactive)	76.2 µM (inactive)	71.1 µM (inactive)	32.7 µM (inactive)	35.3 µM (inactive)	44.4 µM	18.7 µM (inactive)	65.5 µM (inactive)	29.3 µM (inactive)	> 100 µM (inactive)	> 100 µM (inactive)	29.6 µM (inactive)	> 100 µM (inactive)	> 100 µM (inactive)
Cc1ccccc1S(=O)(=O)Nn1cnc2ccc(S(=O)(=O)Nc3ccc(Cl)cc3)cc2c1=O	> 100 µM (inactive)	> 100 µM (inactive)	> 100 µM (inactive)	> 100 µM (inactive)	> 100 µM (inactive)	> 100 µM (inactive)	> 100 µM (inactive)	> 100 µM (inactive)	> 100 µM (inactive)	> 100 µM (inactive)	> 100 µM (inactive)	> 100 µM	> 100 µM (inactive)	> 100 µM (inactive)	48.4 µM (inactive)	28.8 µM (inactive)	> 100 µM (inactive)	> 100 µM (inactive)	16.1 µM (inactive)	–
O=C(CP(c1ccccc1)c1ccccc1)c1cccc(C(=O)CP(c2ccccc2)c2ccccc2)c1	19.7 µM (inactive)	> 100 µM (inactive)	43.8 µM (inactive)	> 100 µM (inactive)	16.2 µM (inactive)	74.1 µM (inactive)	–	80.9 µM (inactive)	92 µM (inactive)	58.5 µM (inactive)	6.76 µM (inactive)	49.3 µM	12.1 µM (inactive)	17.9 µM (inactive)	26.1 µM (inactive)	62.7 µM (inactive)	68.9 µM (inactive)	–	37.2 µM (inactive)	61.7 µM (inactive)
CCCCNC(=O)OCCN=c1c2ccccc2ccc2ccccc12	> 100 µM (inactive)	> 100 µM (inactive)	> 100 µM (inactive)	> 100 µM (inactive)	> 100 µM (inactive)	> 100 µM (inactive)	> 100 µM (inactive)	> 100 µM (inactive)	> 100 µM (inactive)	> 100 µM (inactive)	> 100 µM (inactive)	> 100 µM	> 100 µM (inactive)	> 100 µM (inactive)	> 100 µM (inactive)	> 100 µM (inactive)	> 100 µM (inactive)	–	> 100 µM (inactive)	> 100 µM (inactive)
Cc1ccc(C(=O)Nc2ccc(S(=O)(=O)O)c3cc(S(=O)(=O)O)cc(S(=O)(=O)O)c23)cc1NC(=O)c1cccc(N)c1	> 100 µM (inactive)	> 100 µM (inactive)	> 100 µM (inactive)	> 100 µM (inactive)	> 100 µM (inactive)	> 100 µM (inactive)	–	> 100 µM (inactive)	> 100 µM (inactive)	> 100 µM (inactive)	> 100 µM (inactive)	> 100 µM	> 100 µM (inactive)	> 100 µM (inactive)	> 100 µM (inactive)	> 100 µM (inactive)	> 100 µM (inactive)	> 100 µM (inactive)	> 100 µM (inactive)	> 100 µM (inactive)
c1cc(-c2sc(-c3ccncc3)c(-c3ccncc3)c2-c2ccncc2)ccn1	10.8 µM (inactive)	22.9 µM (inactive)	18.4 µM (inactive)	12.5 µM (inactive)	–	3.27 µM (inactive)	11.4 µM (inactive)	15.2 µM (inactive)	19.6 µM (inactive)	14.1 µM (inactive)	–	18.5 µM	12.8 µM (inactive)	19.4 µM (inactive)	17.3 µM (inactive)	22.3 µM (inactive)	15.1 µM (inactive)	15.5 µM (inactive)	19.8 µM (inactive)	16.3 µM (inactive)
